{"source": "paper PMC6299892", "about": "(Journal of Genetic Engineering & Biotechnology, 2016)", "system": "A. pullulans NAC8 yellow laccase", "assay": "absorbance at […] nm, double reciprocal plot", "type": "biochemical, Aureobasidium pullulans", "details": "guaiacol 0.1-3.0 mM; standard assay: acetate buffer pH 5.0, 25 °C", "data": [{"compound": "COc1ccccc1O", "note": "[guaiacol, 2-methoxyphenol]", "values": [{"measurement": "Km", "result": "1050 ± 120", "unit": "µM"}]}]}
